Assay results from ChEMBL document CHEMBL4706479, “Novel Aryloxyethyl Derivatives of 1-(1-Benzoylpiperidin-4-yl)methanamine as the Extracellular Regulated Kinases 1/2 (ERK1/2) Phosphorylation-Preferring Serotonin 5-HT Receptor-Biased Agonists with Robust Antidepressant-like Activity” (J Med Chem, 2019).

Tests used:
[1] = Toxicity in Wistar rat assessed as minimum effective dose causing effect on flat body posture administered subcutaneously with compound and observed after 60 mins post treatment; settings: in vivo, sc, 1 h
Rattus norvegicus [2] = test: Antidepressant-like activity in Wistar rat assessed as reduction in immobility time at 0.63 mg/kg, sc administered 60 mins prior to testing and measured for 5 mins test period by Porsolt-forced swim test; format: functional; parameters: scale not given: the % may be the effect or the level left; settings: time 65 min, 1.083 h
Rattus norvegicus [3] = test: Antidepressant-like activity in Wistar rat assessed as minimum effective dose causing reduction in immobility time after sc administration with compound 60 mins prior to testing and measured for 5 mins test period by Porsolt-forced swim test; format: functional; settings: 1 h, read-out: MED
[4] = target: T1, 5-hydroxytryptamine receptor 1A (Homo sapiens) (UniProt P08908); test: Biased agonist activity at human recombinant 5-HT1A receptor stably expressed in CHO-K1 cells assessed as increase in ERK1/2 phosphorylation levels incubated for 15 mins by Alphalisa assay relative to serotonin; format: cell-based
T1 sequence (whole entry): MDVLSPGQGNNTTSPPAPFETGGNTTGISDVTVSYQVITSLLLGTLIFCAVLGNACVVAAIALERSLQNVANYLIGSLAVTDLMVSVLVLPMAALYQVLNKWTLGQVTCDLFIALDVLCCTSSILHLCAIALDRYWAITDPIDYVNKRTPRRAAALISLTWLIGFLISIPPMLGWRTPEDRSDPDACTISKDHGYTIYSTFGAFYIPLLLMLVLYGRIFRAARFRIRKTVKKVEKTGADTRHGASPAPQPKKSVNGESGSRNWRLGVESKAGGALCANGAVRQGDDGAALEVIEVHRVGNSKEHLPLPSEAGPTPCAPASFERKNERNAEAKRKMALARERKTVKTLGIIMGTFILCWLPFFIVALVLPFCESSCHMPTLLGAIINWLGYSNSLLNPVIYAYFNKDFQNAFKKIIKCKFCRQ

[5] = target: T1, 5-hydroxytryptamine receptor 1A (Homo sapiens); test: Biased agonist activity at human recombinant 5-HT1A receptor stably expressed in CHO-K1 cells assessed as inhibition of forskolin-induced cAMP accumulation after 40 mins by LANCE Ultra cAMP kit-based TR-FRET assay relative to serotonin; format: functional, cell-based
[6] = target: T2, Adrenergic receptor alpha-1 (Rattus norvegicus, UniProt P15823+P23944+P43140); test: Displacement of [3H]-prazosin from alpha1 adrenergic receptor in rat cortex measured after 30 mins by microbeta2 scintillation counting method; format: tissue-based
T2 sequence (P15823 whole entry): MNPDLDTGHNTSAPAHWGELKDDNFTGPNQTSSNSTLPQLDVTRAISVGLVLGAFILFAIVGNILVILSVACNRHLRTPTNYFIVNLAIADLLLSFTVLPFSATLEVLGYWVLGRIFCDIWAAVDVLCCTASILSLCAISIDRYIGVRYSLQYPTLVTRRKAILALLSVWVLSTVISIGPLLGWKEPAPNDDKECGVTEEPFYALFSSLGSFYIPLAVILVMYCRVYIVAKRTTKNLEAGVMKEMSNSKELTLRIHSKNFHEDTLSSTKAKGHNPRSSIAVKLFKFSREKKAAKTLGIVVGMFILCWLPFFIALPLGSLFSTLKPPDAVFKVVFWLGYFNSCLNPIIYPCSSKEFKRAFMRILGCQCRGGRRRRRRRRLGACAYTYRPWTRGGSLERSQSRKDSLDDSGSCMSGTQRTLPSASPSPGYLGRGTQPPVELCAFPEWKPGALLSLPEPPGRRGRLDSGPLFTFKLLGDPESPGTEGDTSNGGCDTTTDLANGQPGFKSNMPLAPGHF
T2 sequence (P23944 whole entry): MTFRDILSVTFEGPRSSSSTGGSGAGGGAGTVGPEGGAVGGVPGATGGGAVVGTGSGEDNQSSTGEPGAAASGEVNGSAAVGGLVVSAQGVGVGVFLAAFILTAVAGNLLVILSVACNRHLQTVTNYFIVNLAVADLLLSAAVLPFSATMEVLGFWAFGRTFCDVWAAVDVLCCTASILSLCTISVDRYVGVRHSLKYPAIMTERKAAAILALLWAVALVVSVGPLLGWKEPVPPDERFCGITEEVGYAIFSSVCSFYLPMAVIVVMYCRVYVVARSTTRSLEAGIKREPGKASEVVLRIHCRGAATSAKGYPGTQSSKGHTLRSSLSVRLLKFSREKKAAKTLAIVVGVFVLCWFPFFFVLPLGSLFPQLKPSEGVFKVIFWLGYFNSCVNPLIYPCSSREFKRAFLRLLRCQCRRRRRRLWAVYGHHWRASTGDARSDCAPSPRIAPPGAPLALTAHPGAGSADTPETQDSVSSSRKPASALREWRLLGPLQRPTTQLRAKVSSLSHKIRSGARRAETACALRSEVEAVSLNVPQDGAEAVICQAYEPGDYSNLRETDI
T2 sequence (P43140 whole entry): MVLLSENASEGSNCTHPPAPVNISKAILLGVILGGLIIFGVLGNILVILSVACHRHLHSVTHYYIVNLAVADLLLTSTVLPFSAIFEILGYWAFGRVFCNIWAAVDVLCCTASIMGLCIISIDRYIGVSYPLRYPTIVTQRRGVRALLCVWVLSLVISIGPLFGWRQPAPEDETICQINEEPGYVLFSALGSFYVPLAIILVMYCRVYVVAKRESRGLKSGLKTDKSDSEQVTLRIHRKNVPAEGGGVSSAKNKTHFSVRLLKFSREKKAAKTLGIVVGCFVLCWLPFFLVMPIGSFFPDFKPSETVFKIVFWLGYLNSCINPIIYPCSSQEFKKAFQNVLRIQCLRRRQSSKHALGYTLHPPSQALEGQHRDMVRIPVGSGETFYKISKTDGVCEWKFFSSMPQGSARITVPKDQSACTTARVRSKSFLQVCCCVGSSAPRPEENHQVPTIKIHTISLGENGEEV

[7] = target: T3, 5-hydroxytryptamine receptor 1A (Homo sapiens, UniProt P08908); test: Displacement of [3H]8-OH-DPAT from recombinant human 5HT1A receptor stably expressed in CHO-K1 cell membranes measured after 60 mins by microbeta2 scintillation counting method; parameters: species or system Cell membrane
T3 sequence (P08908 whole entry): T1 sequence (whole entry)

D(2) dopamine receptor = D(2) dopamine receptor (Homo sapiens, UniProt P14416); test: Displacement of [3H]-methylspiperone from recombinant human D2 receptor stably expressed in CHO-K1 cell membranes measured after 60 mins by microbeta2 scintillation counting method; parameters: species or system Cell membrane
Sequence of D(2) dopamine receptor (P14416 whole entry, the tested form may be a part): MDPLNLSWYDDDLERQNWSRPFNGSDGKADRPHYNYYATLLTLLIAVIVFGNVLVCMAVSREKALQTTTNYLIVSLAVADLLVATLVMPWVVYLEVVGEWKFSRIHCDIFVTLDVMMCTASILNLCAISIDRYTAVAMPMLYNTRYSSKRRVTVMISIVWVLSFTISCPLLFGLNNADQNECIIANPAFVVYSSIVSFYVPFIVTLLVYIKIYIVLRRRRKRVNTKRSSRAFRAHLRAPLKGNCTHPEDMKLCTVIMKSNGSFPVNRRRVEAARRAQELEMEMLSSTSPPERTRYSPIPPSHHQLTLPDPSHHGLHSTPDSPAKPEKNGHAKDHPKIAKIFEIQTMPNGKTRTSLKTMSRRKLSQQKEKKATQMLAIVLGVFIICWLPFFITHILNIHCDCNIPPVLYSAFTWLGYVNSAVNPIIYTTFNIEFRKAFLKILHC

[8] = target: T1, 5-hydroxytryptamine receptor 1A (Homo sapiens); test: Biased agonist activity at Gal4-VP16 transcription factor linked human 5-HT1A receptor expressed in human U2OS cells assessed as stimulation of beta-arrestin recruitment measured after 5 hrs by Tango assay relative to serotonin; format: cell-based
[9] = target: T1, 5-hydroxytryptamine receptor 1A (Homo sapiens); test: Bias factor, ratio of biased agonist activity at human recombinant 5-HT1A receptor stably expressed in CHO-K1 cells assessed as increase in ERK1/2 phosphorylation levels to biased agonist activity at human recombinant 5-HT1A receptor stably expressed in CHO-K1 cells assessed as inhibition of forskolin-induced cAMP accumulation; format: functional, cell-based
[10] = target: T3, 5-hydroxytryptamine receptor 1A; test: Biased agonist activity at human recombinant 5-HT1A receptor stably expressed in CHO-K1 cells assessed as increase in ERK1/2 phosphorylation levels incubated for 15 mins by Alphalisa assay; format: cell-based
[11] = target: T3, 5-hydroxytryptamine receptor 1A; test: Biased agonist activity at human recombinant 5-HT1A receptor stably expressed in CHO-K1 cells assessed as inhibition of forskolin-induced cAMP accumulation after 40 mins by LANCE Ultra cAMP kit-based TR-FRET assay; format: functional, cell-based
[12] = target: T1, 5-hydroxytryptamine receptor 1A (Homo sapiens); test: (§1) Bias factor, ratio of biased agonist activity at human recombinant 5-HT1A receptor stably expressed in CHO-K1 cells assessed as inhibition of forskolin-induced cAMP accumulation to biased agonist activity at Gal4-VP16 transcription factor linked human 5-HT1A receptor expressed in human U2OS cells assessed as stimulation of beta-arrestin recruitment; format: functional, cell-based
[13] = target: T1, 5-hydroxytryptamine receptor 1A (Homo sapiens); test: as §1, with “increase in ERK1/2 phosphorylation levels” for “inhibition of forskolin-induced cAMP accumulation”; format: cell-based
[14] = target: T1, 5-hydroxytryptamine receptor 1A (Homo sapiens); test: Biased agonist activity at human recombinant 5-HT1A receptor stably expressed in CHO-K1 cells assessed as increase in calcium mobilization measured at 2 sec intervals for 180 secs by Fluo-4AM dye based fluorescence assay relative to serotonin; format: functional, cell-based; settings: time 180.0 sec

In the case of CCCN(CCC)C1CCc2cccc(O)c2C1 (racemic) [8-OH-DPAT], the MED [1] is reported as 0.63 mg/kg, the Activity (Rattus norvegicus [2]) is reported as 90% and the minimal effective dose (Rattus norvegicus [3]) is reported as 0.16 mg/kg. For the same molecule, the Emax ([4]; filed as agonist) was 93% and the Emax ([5]; filed as partial agonist) was 63%.
Work on O=C(c1ccc(F)c(Cl)c1)N1CCC(F)(CNCCOc2ncccn2)CC1 yielded a pKi [6] of under 6.
With O=C(c1ccc(Cl)c(Cl)c1)N1CCC(F)(CNCCOc2ccccc2)CC1 the Ki [7] was 0.0148 nM and the Ki (D(2) dopamine receptor) was over 1000 nM.
For O=C(c1ccc(F)c(Cl)c1)N1CCC(F)(CNCCSc2ccccc2)CC1, the Emax ([8]; filed as partial agonist) was 70%, the Ratio [9] was 1.27 and the EC50 [10] was 170 nM. The Emax ([4]; filed as partial agonist) was 85%, the EC50 [11] was 2450 nM and the Emax ([5]; filed as partial agonist) was 71%. It also gave a Ratio [12] of -0.45, a Ratio [13] of 0.82 and a Ki [7] of 0.562 nM. It also gave a Ki (D(2) dopamine receptor) of over 1000 nM.
In the case of O=C(c1ccc(F)c(Cl)c1)N1CCC(F)(CNCCOc2ccnnc2)CC1, the pKi [6] is reported as under 6, the Ki [7] is reported as 200 nM and the Ki (D(2) dopamine receptor) is reported as over 1000 nM.
O=C(c1ccc(F)c(Cl)c1)N1CCC(F)(CNCCOc2cnccn2)CC1 showed an Emax ([8]; filed as agonist) of 97%, an Emax ([14]; filed as agonist) of 89% and a pKi [6] of under 6. The Emax ([4]; filed as agonist) was 100% and the Emax ([5]; filed as agonist) was 90%.
For O=C(c1ccc(F)c(Cl)c1)N1CCC(F)(CNCCNc2ccccc2)CC1, the Emax ([8]; filed as agonist) was 104%, the Emax ([14]; filed as partial agonist) was 65% and the pKi [6] was under 6. It also gave an Emax ([4]; filed as agonist) of 81% and an Emax ([5]; filed as agonist) of 79%.
In the case of O=C(c1ccc(F)c(Cl)c1)N1CCC(F)(CNCCOc2cccnc2)CC1, the Emax ([8]; filed as agonist) is reported as 101%, the Emax ([14]; filed as agonist) is reported as 98% and the pKi [6] is reported as under 6. The Emax ([4]; filed as agonist) was 99% and the Emax ([5]; filed as agonist) was 100%.
Molecule O=C(c1ccc(Cl)c(Cl)c1)N1CCC(F)(CNCCOc2ccccn2)CC1 has an Emax ([8]; filed as agonist) of 99%, an Emax ([14]; filed as partial agonist) of 58% and an Emax ([4]; filed as agonist) of 85%. The Emax ([5]; filed as agonist) was 71%.
With O=C(c1ccc(F)c(Cl)c1)N1CCC(F)(CNCCCc2ccccn2)CC1 the Emax ([8]; filed as agonist) was 101%, the Emax ([14]; filed as agonist) was 87% and the Emax ([5]; filed as partial agonist) was 74%.
